Entries after “also recorded” stand apart in the source; their conditions may differ.
What was measured:
[1] = target: T1, GCase in fibroblasts with the N370S/RecNcil mutation (Homo sapiens, UniProt P04062, N409S); test: Pharmacological chaperoning activity (GCase activity in Gaucher patient fibroblasts); format: cell-based; conditions: six concentrations (10 nM to 100 µM), 4 days incubation
T1 construct: Fibroblasts with the N370S/RecNcil mutation from patients with Gaucher disease; host or cells: human Gaucher patient fibroblasts, N370S/RecNciI
T1 sequence (P04062 40-536 N409S): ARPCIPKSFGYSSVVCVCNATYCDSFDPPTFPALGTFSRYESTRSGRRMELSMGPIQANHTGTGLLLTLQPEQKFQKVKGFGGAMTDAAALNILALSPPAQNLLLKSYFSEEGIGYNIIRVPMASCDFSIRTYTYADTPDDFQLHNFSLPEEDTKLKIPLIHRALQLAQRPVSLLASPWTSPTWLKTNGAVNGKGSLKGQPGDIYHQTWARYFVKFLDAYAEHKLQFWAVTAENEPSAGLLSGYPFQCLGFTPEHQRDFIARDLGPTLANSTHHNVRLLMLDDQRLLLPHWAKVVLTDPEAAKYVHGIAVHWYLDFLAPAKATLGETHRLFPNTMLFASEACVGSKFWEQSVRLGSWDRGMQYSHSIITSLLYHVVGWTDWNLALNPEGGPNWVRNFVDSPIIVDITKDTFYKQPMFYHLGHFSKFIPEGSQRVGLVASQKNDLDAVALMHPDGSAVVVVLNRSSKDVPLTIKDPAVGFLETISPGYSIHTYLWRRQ
Method: (§1) Fibroblasts with the N370S/RecNcil mutation from patients with Gaucher disease were obtained from the “Cell line and DNA Biobank from patients affected by Genetic Diseases” (Gaslini Hospital, Genova, Italy). Fibroblasts cells (15.0 × 10^4) were seeded in T25 flasks with DMEM supplemented with fetal bovine serum (10%), penicillin/streptomycin (1%), and glutamine (1%) and incubated at 37 °C with 5% CO2 for 24 h. The medium was removed, and fresh medium containing compound 10 was added to the cells and left for 4 days. The medium was removed, and the cells were washed with PBS and detached with trypsin to obtain cell pellets, which were washed four times with PBS, frozen, and lysed by sonication in water. Enzyme activity was measured as reported above. Reported data are mean S.D. (n = 2).
(§2) Pharmacological chaperoning activity
Fibroblasts with the N370S/RecNcil mutation from Gaucher disease patients were obtained from the “Cell line and DNA Biobank from patients affected by Genetic Diseases” (Gaslini Hospital, Genova, Italy). Fibroblasts cells (20.0 x 104) were seeded in T25 flasks with DMEM supplemented with fetal bovine serum (10%), penicillin/streptomycin (1%), and glutamine (1%) and incubated at 37 °C with 5% CO2 for 24 h. The medium was removed, and fresh medium containing the compounds 9, 10 or 12 at different concentrations (10 nM, 100 nM, 1 µM, 10 µM, 50 µM, 100 µM) was added to the cells and left for 4 days. The medium was removed, and the cells were washed with PBS and detached with trypsin to obtain cell pellets, which were washed four times with PBS, frozen and lysed by sonication in water. Enzyme activity was measured as reported above. Reported data are mean S.D. (n=2).
Figure S52: GCase activity in human fibroblasts derived from GD patients bearing N370/RecNcil mutations in the presence of compound 9.
Figure S53: GCase activity in human fibroblasts derived from GD patients bearing N370/RecNcil mutations in the presence of compound 10. The flasks containing cells incubated with 100 µM and 50 µM […]

[2] = system: human fibroblasts derived from Gaucher patients; test: Toxicity / cell viability in Gaucher patient fibroblasts during chaperoning assay; format: cell-based; conditions: at 50 and 100 µM, 4 days
Method: as §1, §2
Fibroblasts with the N370S/RecNcil mutation from Gaucher disease patients were obtained from the “Cell line and DNA Biobank from patients affected by Genetic Diseases” (Gaslini Hospital, Genova, Italy). Fibroblasts cells (20.0 x 104) were seeded in T25 flasks with DMEM supplemented with fetal bovine serum (10%), penicillin/streptomycin (1%), and glutamine (1%) and incubated at 37 °C with 5% CO2 for 24 h. […] Enzyme activity was measured as reported above. […]

SMILES: CCCCCCCCCO[C@H]1CNC[C@@H](O)[C@H]1O [compound 9, (3S, 4R, 5R)-4,5-Dihydroxy-3-(Nonyloxy) Piperidine]
- GCase enzyme rescue (chaperoning activity) [1]: did not impart any enzyme rescue; also recorded: None of the compounds gave enzyme rescue

SMILES: CCCCCCCCCCCCN[C@H]1CNC[C@@H](O)[C@H]1O [compound 10, (3R, 4S, 5S)-3,4-Dihydroxy-5-(Dodecylamino) Piperidine]
- GCase enzyme rescue (chaperoning activity) [1]: failed to rescue the enzyme activity; also recorded: did not impart any enzyme rescue; also recorded: None of the compounds gave enzyme rescue
- toxicity / cell viability [2]: low cell viability; also recorded: remarkable toxicity
- melting point: 92 to 94 °C

SMILES: CCCCCCCC[C@]1(O)CNC[C@@H](O)[C@H]1O [compound 12, (3S, 4R, 5R)-3,4,5-Trihydroxy-3-Octyl-Piperidine]
- GCase enzyme rescue (chaperoning activity) [1]: did not impart any enzyme rescue; also recorded: None of the compounds gave enzyme rescue

Reference: PMC7582770, “Synthesis of “All-Cis” Trihydroxypiperidines from a Carbohydrate-Derived Ketone: Hints for the Design of New β-Gal and GCase Inhibitors” (Molecules, 2020)
